Laboratory results as given in PubChem BioAssay AID1919002 (Molecular Pharmacology Branch, DTP, NCI, 2023).

System: 743489-274-T-PDC complex spheroid growth
Assay: Anticancer human tumor 743489-274-T-PDC patient-derived renal cell carcinoma cell line growth inhibition [AhR]
Conditions: for IC50: curve of first compound; for viability, T/C: stronger effect = lower value
Method in brief: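 Complex tumor spheroids co-cultured with HUVEC and human MSC stroma; AhR antagonists tested in combination with standard-of-care and investigational agents. Top concentration at or near clinical Cmax (else 10 microM), half-log dilutions; growth expressed as percent test/control.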
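Further: spheroids exposed to agents for 7 days before readout.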
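Wherever viability, T/C is given: 100% = DMSO vehicle control wells.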

## CC1(C)CCC(CN2CCN(c3ccc(C(=O)NS(=O)(=O)c4ccc(NCC5CCOCC5)c([N+](=O)[O-])c4)c(Oc4cnc5[nH]ccc5c4)c3)CC2)=C(c2ccc(Cl)cc2)C1 + Cc1cncc(-c2nc(NCCc3c[nH]c4ccccc34)c3ncn(C(C)C)c3n2)c1
Second compound 0.1 µM
  IC50: > 10 µM
Second compound 0.316 µM
  IC50: > 10 µM
Second compound 1 µM
  IC50: > 10 µM
Second compound 3.16 µM
  IC50: > 10 µM
Second compound 10 µM
  IC50: > 10 µM
Second compound 0.1 µM, first compound 0.0316 µM
  viability, T/C: 103%
Second compound 0.1 µM, first compound 0.1 µM
  viability, T/C: 105%
Second compound 0.1 µM, first compound 0.316 µM
  viability, T/C: 107%
Second compound 0.1 µM, first compound 1 µM
  viability, T/C: 106%
Second compound 0.1 µM, first compound 3.16 µM
  viability, T/C: 99.5%
Second compound 0.1 µM, first compound 10 µM
  viability, T/C: 113%
Second compound 0.316 µM, first compound 0.0316 µM
  viability, T/C: 98.5%
Second compound 0.316 µM, first compound 0.1 µM
  viability, T/C: 110%
Second compound 0.316 µM, first compound 0.316 µM
  viability, T/C: 106%
Second compound 0.316 µM, first compound 1 µM
  viability, T/C: 104%
Second compound 0.316 µM, first compound 3.16 µM
  viability, T/C: 104%
Second compound 0.316 µM, first compound 10 µM
  viability, T/C: 123%
Second compound 1 µM, first compound 0.0316 µM
  viability, T/C: 99.4%
Second compound 1 µM, first compound 0.1 µM
  viability, T/C: 108%
Second compound 1 µM, first compound 0.316 µM
  viability, T/C: 103%
Second compound 1 µM, first compound 1 µM
  viability, T/C: 114%
Second compound 1 µM, first compound 3.16 µM
  viability, T/C: 133%
Second compound 1 µM, first compound 10 µM
  viability, T/C: 128%
Second compound 3.16 µM, first compound 0.0316 µM
  viability, T/C: 116%
Second compound 3.16 µM, first compound 0.1 µM
  viability, T/C: 123%
Second compound 3.16 µM, first compound 0.316 µM
  viability, T/C: 119%
Second compound 3.16 µM, first compound 1 µM
  viability, T/C: 135%
Second compound 3.16 µM, first compound 3.16 µM
  viability, T/C: 145%
Second compound 3.16 µM, first compound 10 µM
  viability, T/C: 138%
Second compound 10 µM, first compound 0.0316 µM
  viability, T/C: 106%
Second compound 10 µM, first compound 0.1 µM
  viability, T/C: 111%
Second compound 10 µM, first compound 0.316 µM
  viability, T/C: 112%
Second compound 10 µM, first compound 1 µM
  viability, T/C: 133%
Second compound 10 µM, first compound 3.16 µM
  viability, T/C: 151%
Second compound 10 µM, first compound 10 µM
  viability, T/C: 227%
